Source: the NIST ThermoML archive (doi:10.1021/je100472t)
± gives the expanded uncertainty stated by the source.

Conditions: 101.33 kPa, Liquid; for speed of sound: Pulse-echo method; for mass density: Vibrating tube method

CNc1ccccc1 [N-methylaniline]
speed of sound (293.15 K): 1582.5 ± 2.1 m/s | mass density (293.15 K): 986.295 ± 0.82 kg/m3 | speed of sound (298.15 K): 1563.9 ± 2.1 m/s | mass density (298.15 K): 982.278 ± 0.82 kg/m3 | speed of sound (303.15 K): 1546 ± 2.1 m/s | mass density (303.15 K): 978.284 ± 0.81 kg/m3

Nc1ccccc1 [aniline]
speed of sound (293.15 K): 1657 ± 0.94 m/s | mass density (293.15 K): 1021.84 ± 0.092 kg/m3 | speed of sound (298.15 K): 1637.8 ± 0.9 m/s | mass density (298.15 K): 1017.51 ± 0.09 kg/m3 | speed of sound (303.15 K): 1619.3 ± 0.9 m/s | mass density (303.15 K): 1013.23 ± 0.088 kg/m3

CCC(C)=O [butanone]
speed of sound (293.15 K): 1212 ± 0.8 m/s | mass density (293.15 K): 805.08 ± 0.14 kg/m3 | speed of sound (298.15 K): 1190.8 ± 0.8 m/s | mass density (298.15 K): 799.861 ± 0.14 kg/m3 | speed of sound (303.15 K): 1170.6 ± 0.8 m/s | mass density (303.15 K): 794.636 ± 0.14 kg/m3

c1ccncc1 [pyridine]
speed of sound (293.15 K): 1436.6 ± 0.9 m/s | mass density (293.15 K): 983.163 ± 0.087 kg/m3 | speed of sound (298.15 K): 1416.2 ± 0.9 m/s | mass density (298.15 K): 978.138 ± 0.089 kg/m3 | speed of sound (303.15 K): 1396.9 ± 0.9 m/s | mass density (303.15 K): 973.148 ± 0.09 kg/m3
